Laboratory results: US8680012B2, “4-phenyl-pyrane-3,5-diones,4-phenyl-thiopyrane-3,6-diones and cyclohexanetriones as novel herbicides” (Syngenta Crop Protection LLC, priority 2006, dated 2014)

Columns and labels:
Assay type in all cases: in vivo
[1] = tested on: Echinochloa crus-galli (ECHCG); test: Example B post-emergence herbicidal activity, glasshouse pot test; details: 312 h, rate 250 g/ha, evaluated after 13 days, read-out: Post-emergence activity ECHCG (100=total damage to plant; 0=no damage to plant)
Experimental: (§1) Seeds of a variety of test species were sown in standard soil in pots. After cultivation for one day (pre-emergence) or after 8 days cultivation (post-emergence) under controlled conditions in a glasshouse (at 24/16° C., day/night; 14 hours light; 65% humidity), the plants were sprayed with an aqueous spray solution derived from the formulation of the technical active ingredient in acetone/water (50:50) solution containing 0.5% Tween 20 (polyoxyethelyene sorbitan monolaurate, CAS RN 9005-64-5). The test plants were then grown in a glasshouse under controlled conditions in a glasshouse (at 24/16° C., day/night; 14 hours light; 65% humidity) and watered twice daily. After 13 days for pre and post-emergence, the test was evaluated (100=total damage to plant; 0=no damage to plant).
(§2) Alopecurus myosuroides (ALOMY), Avena fatua (AVEFA), Setaria faberi (SETFA), Echinochloa crus-galli (ECHCG), Solanum nigrum (SOLNI) and Amaranthus retroflexus (AMARE)

[2] = tested on: Alopecurus myosuroides (ALOMY); test: as above; details: 312 h, rate 250 g/ha, evaluated after 13 days, read-out: Post-emergence activity ALOMY (100=total damage to plant; 0=no damage to plant)
Experimental: as §1, §2

[3] = tested on: Amaranthus retroflexus (AMARE); test: as above; details: 312 h, rate 250 g/ha, evaluated after 13 days, read-out: Post-emergence activity AMARE (100=total damage to plant; 0=no damage to plant)
Experimental: as §1, §2

Avena fatua (AVEFA) [4] = test: as above; details: 312 h, rate 250 g/ha, evaluated after 13 days, read-out: Post-emergence activity AVEFA (100=total damage to plant; 0=no damage to plant)
Experimental: as §1, §2

Setaria faberi (SETFA) [5] = test: as above; details: 312 h, rate 250 g/ha, evaluated after 13 days, read-out: Post-emergence activity SETFA (100=total damage to plant; 0=no damage to plant)
Experimental: as §1, §2

[6] = tested on: Echinochloa crus-galli (ECHCG); test: Example B pre-emergence herbicidal activity, glasshouse pot test; details: 312 h, rate 250 g/ha, evaluated after 13 days, read-out: Pre-emergence activity ECHCG (100=total damage to plant; 0=no damage to plant)
Experimental: as §1, §2

[7] = tested on: Alopecurus myosuroides (ALOMY); test: as above; details: 312 h, rate 250 g/ha, evaluated after 13 days, read-out: Pre-emergence activity ALOMY (100=total damage to plant; 0=no damage to plant)
Experimental: as §1, §2

[8] = tested on: Amaranthus retroflexus (AMARE); test: as above; details: 312 h, rate 250 g/ha, evaluated after 13 days, read-out: Pre-emergence activity AMARE (100=total damage to plant; 0=no damage to plant)
Experimental: as §1, §2

Avena fatua (AVEFA) [9] = test: as above; details: 312 h, rate 250 g/ha, evaluated after 13 days, read-out: Pre-emergence activity AVEFA (100=total damage to plant; 0=no damage to plant)
Experimental: as §1, §2

Setaria faberi (SETFA) [10] = test: as above; details: 312 h, rate 250 g/ha, evaluated after 13 days, read-out: Pre-emergence activity SETFA (100=total damage to plant; 0=no damage to plant)
Experimental: as §1, §2

Row | SMILES | pest or weed control at 250 g/ha [1] [%] | pest or weed control at 250 g/ha [2] [%] | pest or weed control at 250 g/ha [3] [%] | pest or weed control at 250 g/ha (Avena fatua (AVEFA) [4]) [%] | pest or weed control at 250 g/ha (Setaria faberi (SETFA) [5]) [%] | pest or weed control at 250 g/ha [6] [%] | pest or weed control at 250 g/ha [7] [%] | pest or weed control at 250 g/ha [8] [%] | pest or weed control at 250 g/ha (Avena fatua (AVEFA) [9]) [%] | pest or weed control at 250 g/ha (Setaria faberi (SETFA) [10]) [%]
1 | CCc1ccc(-c2ccc(Cl)cc2Cl)cc1C1=C(O)C(C)(C)[S+]([O-])C(C)(C)C1=O (single isomer, unassigned) [Compound C-10] | 70 | 20 | 0 | 50 | 20 | 40 | 20 | 0 | 20 | 0
2 | CCc1ccc(-c2ccc(Cl)cc2)cc1C1=C(O)C(C)(C)OC(C)(C)C1=O [Compound A-4] | 100 | 90 | 20 | 80 | 100 | 100 | 70 | 20 | 70 | 100
3 | Cc1ccc(-c2ccc(Cl)cc2F)cc1C1=C(O)C(C)(C)OC(C)(C)C1=O [Compound A-59] | 100 | 30 | 0 | 50 | 90 | 90 | 30 | 0 | 40 | 40
4 | Cc1ccc(-c2c(Cl)cc(Cl)cc2Cl)cc1C1=C(O)C(C)(C)OC(C)(C)C1=O [Compound A-60] | 80 | 20 | 60 | 0 | 80 | 20 | 0 | 0 | 0 | 20
5 | CCc1ccc(-c2ccc(Cl)cc2)cc1C1=C(O)[C@@]2(C)C=C[C@H](O2)C1=O [Compound A-62] | 100 | 70 | 0 | 70 | 100 | 0 | 20 | 0 | 20 | 60
6 | CCc1ccc(-c2ccc(Cl)cc2)cc1C1=C(O)[C@@]2(CC)C=C[C@H](O2)C1=O [Compound A-63] | 100 | 90 | 0 | 60 | 100 | 0 | 0 | 0 | 0 | 30
7 | CCc1ccc(-c2ccc(Cl)cc2C)cc1C1=C(O)C(C)(C)OC(C)(C)C1=O [Compound A-64] | 100 | 20 | 20 | 0 | 90 | 40 | 0 | 0 | 20 | 40
8 | CCc1ccc(-c2ccc(Cl)cc2OC)cc1C1=C(O)C(C)(C)OC(C)(C)C1=O [Compound A-65] | 90 | 20 | 10 | 0 | 70 | 90 | 0 | 0 | 0 | 0
9 | CCc1ccc(-c2ccc(Cl)cc2F)cc1C1=C(O)C(C)(C)OC(C)(C)C1=O [Compound A-66] | 100 | 20 | 10 | 30 | 100 | 60 | 0 | 0 | 40 | 50
10 | CCc1ccc(-c2ccc(Cl)c(C(F)(F)F)c2)cc1C1=C(O)C(C)(C)OC(C)(C)C1=O [Compound A-67] | 100 | 80 | 100 | 80 | 30 | 60 | 40 | 0 | 0 | 90
11 | CCc1ccc(-c2ccc(Cl)c(C#N)c2)cc1C1=C(O)C(C)(C)OC(C)(C)C1=O [Compound A-69] | 100 | 70 | 90 | 90 | 100 | 60 | 0 | 0 | 0 | 80
12 | CCc1ccc(-c2ccc(Cl)cc2C(F)(F)F)cc1C1=C(O)C(C)(C)OC(C)(C)C1=O [Compound A-72] | 80 | 20 | 60 | 0 | 80 | 40 | 0 | 0 | 0 | 0
13 | CCc1ccc(-c2cnc(Cl)cc2C)cc1C1=C(O)C(C)(C)OC(C)(C)C1=O [Compound A-73] | 90 | 20 | 0 | 0 | 90 | 10 | 0 | 0 | 0 | 20
14 | CCc1ccc(-c2c(Cl)cc(Cl)cc2Cl)cc1C1=C(O)C(C)(C)OC(C)(C)C1=O [Compound A-74] | 90 | 0 | 70 | 0 | 90 | 80 | 20 | 10 | 0 | 50
15 | CCc1ccc(-c2ccc(Cl)nc2Cl)cc1C1=C(O)C(C)(C)OC(C)(C)C1=O [Compound A-75] | 100 | 90 | 0 | 90 | 100 | 90 | 30 | 0 | 30 | 90
16 | CCc1ccc(-c2ccc(Cl)nc2)cc1C1=C(O)C(C)(C)OC(C)(C)C1=O [Compound A-76] | 100 | 90 | 0 | 70 | 100 | 70 | 60 | 0 | 50 | 100
